Data from publication PMC3702004, “Comparison of Intake and Systemic Relative Effect Potencies of Dioxin-like Compounds in Female Mice after a Single Oral Dose” (Environmental Health Perspectives, 2013).

Columns and labels:
Cyp1b1 mRNA in PBLs = assay: Cyp1b1 gene expression in peripheral blood lymphocytes; format: in vivo, female C57BL/6 mice; conditions: for BMR20TCDD PBLs Cyp1b1 mRNA: 3 days after single oral dose; for REP PBLs Cyp1b1 mRNA: relative to TCDD; for Effect on Cyp1b1 mRNA in PBLs: single oral dose
Experimental: (§1) Animals. Eight-week-old female C57BL/6 mice (Harlan laboratories, Venray, the Netherlands) were randomly assigned to treatment groups (six animals per group) and allowed to acclimate for 1.5 weeks. The animals were housed in groups in standard cages and conditions (23 ± 2°C, 50–60% relative humidity, 12-hr dark/light cycle) with free access to food and water. Mice received a single dose of test compound by oral gavage at a dosing volume of 10 mL/kg body weight (BW). Mice treated with corn oil vehicle (10 mL/kg BW) served as controls. For each congener, five different doses were administered, ranging from 0.5–100 μg/kg BW (TCDD) to 5,000–500,000 µg/kg BW (PCB-153). Detailed information on doses is provided in Supplemental Material, Table S1 (http://dx.doi.org/10.1289/ehp.1206336). On day 3 after dosing, animals were euthanized by CO2/O2 asphyxiation, and blood was immediately collected from the abdominal aorta. The liver, thymus, spleen, and adipose tissue were removed, weighed (liver, thymus, and spleen), snap frozen, and stored at –80°C. All animal treatments were performed with permission of the Animal Ethical Committee (DEC Utrecht) and performed according to the [Law on Animal Experiments (1977)]. Animals were treated humanely and with regard for alleviation of suffering.
(§2) Plasma and PBL isolation. Blood from two mice was pooled (total volume of approximately 1.4 mL); plasma and PBLs were then isolated using Ficoll Paque gradient (GE Healthcare Europe, Diegem, Belgium). Plasma samples were stored at –80°C until compound analysis. Isolated lymphocytes were lysed with RLT buffer (QIAGEN, Venlo, the Netherlands) as described in the QIAGEN RNAeasy kit protocol and stored at –80°C until use.
RNA isolation and quantitative real-time polymerase chain reaction (PCR). Total RNA was isolated from liver and PBLs using a QIAGEN RNeasy kit (QIAGEN). Purity and concentration of the isolated RNA was determined by measuring the absorbance ratio at 260/280 nm and 230/260 nm with a Nanodrop 2000 spectrophotometer (Thermo Scientific, Asheville, NC, USA). RNA was reverse transcribed to complementary DNA (cDNA) using the iScript cDNA synthesis Kit (Bio-Rad, Veenendaal, the Netherlands). Quantitative real-time PCR analyses were performed using the iQ Real-Time PCR Detection System with SYBR green (Bio-Rad). Amplification reactions were set up with […] containing 12.5 μL iQ SYBR Green Supermix (Bio-rad), 0.5 μL distilled H2O, 1 μL (10 μM) forward primer, 1 μL (10 μM) reverse primer, and 10 μL first strand cDNA (10X diluted). Primer sequences were as follows: Cyp1a1: forward-5´-GGTTAACCATGACCGGGAACT-3´ and reverse-5´-TGCCCAAACCAAAGAGAGTGA-3´ ([Schulz et al. 2012]); Cyp1a2: forward-5´-ACATTCCCAAGGAGCGCTGTATCT-3´ and reverse-5´-GTCGATGGCCGAGTTGTTATTGGT-3´ ([Flaveny et al. 2010]); Cyp1b1: forward-5´-GTGGCTGCTCATCCTCTTTACC-3´ and reverse-5´-CCCACAACCTGGTCCAACTC-3´ ([Berge et al. 2004]); β-actin: forward-5´-ATGCTCCCCGGGCTGTAT-3´ and reverse-5´-CATAGGAGTCCTTCTGACCCATTC-3´ ([Schulz et al. 2012]). All primers were run through the National Center for Biotechnology Information Primer-BLAST database (http://www.ncbi.nlm.nih.gov/tools/primer-blast/) to confirm specificity and validate for optimal annealing temperature (60°C for all primers) and efficiency. The efficiency of all primer pairs was 98–102% (tested at 60°C). The following program was used for denaturation and amplification of cDNA: 3 min at 95°C, followed by 40 cycles of 15 sec at 95°C and 45 sec at 60°C. Gene expression for each sample was expressed as threshold cycle (Ct), normalized to the reference gene β-actin (ΔCt). We calculated fold induction relative to the control group.
Data analysis. We obtained concentration–response curves using a sigmoidal dose–response nonlinear regression curve fit with variable slope (GraphPad Prism 6.01; GraphPad Software Inc., San Diego, CA, USA): […]

[1] = Compound analysis: liver, adipose and plasma concentrations 3 days after a single oral dose; format: in vivo, female C57BL/6 mice; conditions: for Adipose % dose / g tissue / liver:adipose ratio (hepatic sequestration criterion 0.3) / Liver % dose / g tissue / Plasma % dose / g tissue / tissue uptake: 3 days after single oral dose; for liver:adipose ratio (hepatic sequestration criterion 0.3): Table 1 doses; for Liver:adipose ratio: based on ng/g tissue, day 3; for tissue uptake: female, C57BL/6, mouse, in vivo
Experimental: as §1
Compound analysis. Adipose and liver tissues samples were homogenized in Na2SO4, followed by extraction and clean-up in one step, and then eluted with 200 mL 1:1 hexane:dichloromethane on an open column packed with 40% wt/wt H2SO4-impregnated silica and KOH-silica. Blood plasma samples were extracted on an open column using Chem-Elut (Agilent Technologies, Santa Clara, CA, USA) and then NaCl eluted with 75 mL 3:2 hexane:2-propanol. Clean-up was performed using a miniaturized silica column (as described above), and samples were eluted using 30 mL hexane. Because the samples typically contained high levels of the analytes, only a small fraction was evaporated and analyzed. Prior to evaporation, we spiked a fraction of the samples with ^13C-labeled standards. We checked potential loss of analytes during extraction and clean-up by reextracting the samples using the identical protocol used for the samples. […] Tetradecane was added prior to evaporation. Sample analysis followed the U.S. Environmental Protection Agency Method 1613 ([U.S. Environmental Protection Agency 1994]) using single ion monitoring mode on an Agilent 6809N gas chromatograph (Agilent Technologies) coupled with a Micromass Ultima Autospec Ultra high-resolution mass spectrometer (HRMS; Waters Corp., Milford, MA, USA). Compounds were separated on a 60 m × 0.25 mm DB5-MS column ([…]; J&W Scientific, Folsom, CA, USA). The HRMS was operated with electron impact ionization with electron energy of 35 eV and an ion source temperature of 250°C. To reduce the number of analyses, samples were pooled before clean-up. […] This method was used because full congener–specific separation could be achieved on the high-resolution GC–HRMS. For lipid determination, samples were evaporated to dryness after the extraction step, and the amount of lipids was determined gravimetrically. Concentrations were calculated based on lipid weight and wet weight. The analysis of samples for the PCB-118 5,000 μg/kg BW dose failed during the procedure; thus analysis for this group could not be completed.
as §2

[2] = toxic equivalency factor relative to TCDD; ref Van den Berg et al. 2006; cited from earlier work

SMILES	Effect on Cyp1b1 mRNA in PBLs (Cyp1b1 mRNA in PBLs; day 3)	Adipose % dose / g tissue ([1]; oral dose 5 µg/kg bw) [% dose / g tissue]	Adipose % dose / g tissue ([1]; oral dose 25 µg/kg bw) [% dose / g tissue]	Adipose % dose / g tissue ([1]; oral dose 100 µg/kg bw) [% dose / g tissue]	WHO-TEF [2]	liver:adipose ratio (hepatic sequestration criterion 0.3) [1]	Liver:adipose ratio ([1]; dose 15,000 μg/kg BW)	Liver:adipose ratio ([1]; dose 50,000 μg/kg BW)	Adipose % dose / g tissue ([1]; oral dose 15000 µg/kg bw) [% dose / g tissue]	Liver % dose / g tissue ([1]; oral dose 15000 µg/kg bw) [% dose / g tissue]	Plasma % dose / g tissue ([1]; oral dose 15000 µg/kg bw) [% dose / g tissue]	Adipose % dose / g tissue ([1]; oral dose 50000 µg/kg bw) [% dose / g tissue]	Liver % dose / g tissue ([1]; oral dose 50000 µg/kg bw) [% dose / g tissue]	Plasma % dose / g tissue ([1]; oral dose 50000 µg/kg bw) [% dose / g tissue]	Liver % dose / g tissue ([1]; oral dose 150000 µg/kg bw) [% dose / g tissue]	Plasma % dose / g tissue ([1]; oral dose 150000 µg/kg bw) [% dose / g tissue]	Plasma % dose / g tissue ([1]; oral dose 500000 µg/kg bw) [% dose / g tissue]	Liver:adipose ratio ([1]; dose 5,000 μg/kg BW)	tissue uptake ([1]; oral dose 5000 µg/kg bw) [%ID/g]	Adipose % dose / g tissue ([1]; oral dose 5000 µg/kg bw) [% dose / g tissue]	also measured
Clc1cc2oc3c(Cl)c(Cl)c(Cl)cc3c2cc1Cl [Congener 4-PeCDF, 2,3,4,7,8-pentachlorodibenzofuran]	dose-dependently induced	3.4	3.0	3.5	0.3																BMR20TCDD PBLs Cyp1b1 mRNA (Cyp1b1 mRNA in PBLs; dose metric Adm dose): 514 µg/kg BW; BMR20TCDD PBLs Cyp1b1 mRNA (Cyp1b1 mRNA in PBLs; dose metric Syst plasma): 212 ng/g lipid; REP PBLs Cyp1b1 mRNA (Cyp1b1 mRNA in PBLs; dose metric Adm dose (µg/kg BW)): 0.04; REP PBLs Cyp1b1 mRNA (Cyp1b1 mRNA in PBLs; dose metric Syst plasma (ng/g lipid)): 0.3
Clc1ccc(-c2cc(Cl)c(Cl)cc2Cl)cc1Cl [PCB-118, 2,3´,4,4´,5-pentachlorobiphenyl]	did not induce				0.00003	< 0.3	0.08±0.01	0.07±0.02	32	2.6	0.054	33	2.2	0.067	2.2	0.062	0.05				
Clc1ccc(-c2cc(Cl)c(Cl)c(Cl)c2)cc1Cl [PCB-126, 3,3´,4,4´,5-pentachlorobiphenyl]		12	11	5.5	0.1	> 0.3															Induction of Cyp1b1 mRNA in PBLs, of the maximal induction of TCDD (Cyp1b1 mRNA in PBLs; highest dose tested, day 3): 3.5%; Liver:adipose ratio ([1]; dose 5 μg/kg BW): 3.2±0.3; Liver:adipose ratio ([1]; dose 25 μg/kg BW): 5.9±0.9; Liver:adipose ratio ([1]; dose 100 μg/kg BW): 9.1±0.9; Liver % dose / g tissue ([1]; oral dose 5 µg/kg bw): 38 % dose / g tissue; Plasma % dose / g tissue ([1]; oral dose 5 µg/kg bw): 0.035 % dose / g tissue; Liver % dose / g tissue ([1]; oral dose 25 µg/kg bw): 65 % dose / g tissue; Plasma % dose / g tissue ([1]; oral dose 25 µg/kg bw): 0.018 % dose / g tissue; Liver % dose / g tissue ([1]; oral dose 100 µg/kg bw): 51 % dose / g tissue; Plasma % dose / g tissue ([1]; oral dose 100 µg/kg bw): 0.012 % dose / g tissue; Plasma % dose / g tissue ([1]; oral dose 250 µg/kg bw): 0.013 % dose / g tissue; Plasma % dose / g tissue ([1]; oral dose 1000 µg/kg bw): 0.014 % dose / g tissue
Clc1cc(Cl)c(-c2cc(Cl)c(Cl)cc2Cl)cc1Cl [PCB-153, 2,2´,4,4´,5,5´-hexachlorobiphenyl]	did not induce					< 0.3	0.11±0.02	0.08±0.03	25	2.5	0.052	25	2.0	0.060		0.050	0.042	0.08±0.02	0.075	23	Liver % dose / g tissue ([1]; oral dose 5000 µg/kg bw): 1.8 % dose / g tissue
Clc1ccc(-c2cc(Cl)c(Cl)c(Cl)c2Cl)cc1Cl [PCB-156, 2,3,3´,4,4´,5-hexachlorobiphenyl]	did not induce				0.00003	< 0.3	0.11±0.03	0.12±0.02	22	2.3	0.061	34	4.1	0.066	3.0	0.045	0.037	0.09±0.02	0.079	25	Liver % dose / g tissue ([1]; oral dose 5000 µg/kg bw): 2.2 % dose / g tissue
